The source of these data is patent EP1205473A1, “VESAMICOL PIPERAZINE DERIVATIVES AND DRUGS CONTAINING THE SAME” (DAIICHI RADIOISOTOPE LABORATORIES, LTD., priority 1999, dated 2001).

Read-outs that look alike come from different tables or passages of the source.

One test addresses adrenaline α1 receptors. The test can be described thus: Receptor binding test: inhibition of tritium-labeled prazosin binding to brain homogenate. The conditions noted are these: read-out: inhibitive concentration at 50% (IC50), Receptor Alpha-1; Table 9; high purity derivatives; unit inferred. Set-up: species or system Male Wistar rats.
The target in test [1] is T1, vesamicol receptors (Rattus norvegicus, UniProt Q62666).
T1 sequence (Q62666 1-530): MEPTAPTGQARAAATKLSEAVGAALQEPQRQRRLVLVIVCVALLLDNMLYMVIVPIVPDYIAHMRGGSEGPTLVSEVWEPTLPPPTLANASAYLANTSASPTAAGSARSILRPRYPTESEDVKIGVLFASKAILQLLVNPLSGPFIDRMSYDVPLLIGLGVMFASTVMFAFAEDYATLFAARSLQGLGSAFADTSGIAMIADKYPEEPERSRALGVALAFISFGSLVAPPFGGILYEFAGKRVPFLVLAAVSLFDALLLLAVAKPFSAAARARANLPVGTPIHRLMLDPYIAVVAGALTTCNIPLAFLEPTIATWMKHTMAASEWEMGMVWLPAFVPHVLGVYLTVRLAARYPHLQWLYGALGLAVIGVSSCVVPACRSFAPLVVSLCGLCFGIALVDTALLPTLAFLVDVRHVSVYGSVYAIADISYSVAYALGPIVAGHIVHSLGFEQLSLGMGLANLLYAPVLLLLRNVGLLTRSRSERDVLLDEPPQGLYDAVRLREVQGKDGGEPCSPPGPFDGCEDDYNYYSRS
The test can be described thus: Inhibition experiment: inhibition of binding of radioactive-iodine-labeled DRC140 to P2 fractions. Set-up: Synaptic vesicles were extracted and separated from the brain of a rat; from tissue; host or cells: rat brain without cerebellum: P2, crude synaptic vesicles, purified synaptic vesicles.

A further test concerns the target T2, sigma receptors (Cavia porcellus, UniProt Q60492).
T2 construct: The brain was immediately extracted; The cerebellum was removed from the brain; from tissue; host or cells: guinea pig brain without cerebellum, membrane pellet
Kind of test: Receptor binding test: inhibition of tritium-labeled (+) pentazocine binding to brain homogenate. The arrangement: species or system male guinea pig. The method, then: (§1) Properties relating to binding of the vesamicol piperazine derivatives of the present invention to various receptors were examined as follows. Specifically, ligands which combine with each receptor were incubated together with homogenates prepared as follows.
To measure affinity to sigma receptors, tritium-labeled (+) pentazocine was added to a brain homogenate prepared as follows. The vesamicol piperazine derivatives synthesized in the Examples were added at various concentrations, and the mixture was incubated for two hours at room temperature.
(§2) B (%) =((1 0 0 × [U])^(∩))/([ I C50 (])^(∩) (+ [U])^(∩)) [formula] wherein B(%) is the proportion of specific binding in the total binding, n indicates a Hill coefficient, and U is the concentration of unbound ligand.
A male guinea pig was anesthetized with ether and was decapitated. The brain was immediately extracted. The cerebellum was removed from the brain. 10 mM Tris-sucrose buffer solution (0.32 M sucrose + 10 mM Tris-HCl (pH 7.4)) was added in the amount of 10 ml/g of the tissue. The mixture was homogenized by a potter-type homogenizer for 6-10 strokes. The homogenate was centrifuged at 1,000 x g for 10 minutes at 4°C and the supernatant liquid was collected. The resulting pellets were suspended in the Tris-sucrose buffer solution at the concentration of 2 ml/g, followed by centrifugation at 1,000 x g for 10 minutes at 4°C. The supernatant liquids obtained by the two centrifugation at 1,000 x g were combined and centrifuged at 31,000 x g for 15 minutes at 4°C. The resulting pellets were suspended in a 10 mM Tris-HCl buffer solution (pH 7.4) at a concentration of 3 ml/g of tissue and incubated for 30 minutes at 25°C. After incubation, the suspension was centrifuged at 31,000 x g for 15 minutes at 4°C. The pellets obtained were suspended in a 10 mM Tris-HCl buffer solution (pH 7.4) to make a final concentration of 1.53 ml/g of tissue. The suspension was homogenized by a potter-type homogenizer for 5 strokes. The homogenate was stored at -80°C until the start of the experiment.

Test [2] addresses T3, serotonin 5-HT1A receptors (Rattus norvegicus, UniProt P19327).
T3 construct: The hippocampi were immediately collected from the brains; from tissue; host or cells: rat hippocampus membranes
T3 sequence (P19327 1-422): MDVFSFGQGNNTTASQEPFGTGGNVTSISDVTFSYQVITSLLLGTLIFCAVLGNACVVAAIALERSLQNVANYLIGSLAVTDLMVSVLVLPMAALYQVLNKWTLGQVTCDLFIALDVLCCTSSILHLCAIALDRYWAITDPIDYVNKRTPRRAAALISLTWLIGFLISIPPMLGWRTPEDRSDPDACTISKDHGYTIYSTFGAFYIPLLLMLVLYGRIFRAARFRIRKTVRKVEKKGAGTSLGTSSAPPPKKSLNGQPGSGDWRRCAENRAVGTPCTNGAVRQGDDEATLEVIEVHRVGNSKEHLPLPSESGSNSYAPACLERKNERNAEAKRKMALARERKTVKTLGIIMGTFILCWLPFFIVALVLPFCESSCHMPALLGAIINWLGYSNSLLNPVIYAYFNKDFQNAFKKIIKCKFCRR
The test can be described thus: Receptor binding test: inhibition of tritium-labeled 8-hydroxy-DPAT binding to brain (hippocampus) homogenate. Set-up: species or system Male Wistar rats. The method, then: as §1
To measure affinity to serotonin 5-HT1A receptors, tritium-labeled 8-hydroxy-DPAT was added to a brain homogenate prepared as follows. The vesamicol piperazine derivatives synthesized in the Examples were added at various concentrations, and the mixture was incubated for 30 minutes at 37°C. To measure affinity to serotonin 5-HT2A receptors, tritium-labeled ketanserin was added to a brain homogenate prepared as follows. The vesamicol piperazine derivatives synthesized in the Examples were added at various concentrations, and the mixture was incubated for 15 minutes at 37°C.
as §2
Male Wistar rats were anesthetized with ether and were decapitated and the brains quickly extracted. The hippocampi were immediately collected from the brains. A 40-fold (vol/wt) amount of ice cooled 50 mM Tris-HCl buffer (pH 7.4) was added to the hippocampi. The mixture was homogenized using a potter-type homogenizer. The homogenate was centrifuged at 40,000 x g for 20 minutes. The supernatant liquid was removed and the resulting pellets were suspended in a 40-fold amount of Tris-HCl buffer solution. The suspension was centrifuged and the Tris buffer solution was again added to the pellets. This procedure was repeated twice. The product thus obtained was homogenized using a 40-fold amount of Tris-HCl buffer solution and incubated for 10 minutes at 37°C to remove endogenic 5-HT. The cell membrane was collected by centrifugation, washed twice, and suspended in a 10-fold amount of 50 mM Tris-HCl buffer solution (pH 7.4). The suspension thus obtained was stored at -80°C until the start of the binding experiment.

The target of test [3] is serotonin 5-HT2A receptors (Rattus norvegicus, UniProt P14842). The test can be described thus: Receptor binding test: inhibition of tritium-labeled ketanserin binding to brain homogenate. Set-up: species or system Male Wistar rats.
The target of test [4] is T1, vesamicol receptors. Kind of test: Inhibition experiment: inhibition of binding of radioactive-iodine-labeled DRC140 to purified synaptic vesicle fractions. The arrangement: Synaptic vesicles were extracted and separated from the brain of a rat; from tissue; host or cells: rat brain without cerebellum: P2, crude synaptic vesicles, purified synaptic vesicles. Particulars: for inhibitive action on purified synaptic vesicles: result in words.

The target in test [5] is T1, vesamicol receptors. Kind of test: Receptor binding test: inhibition of I-125 labeled 5-iodobenzo vesamicol binding to brain homogenate. Set-up: from tissue; host or cells: rat brain without cerebellum, P2 fraction; species or system Male Wistar rats. The conditions noted are these: Inhibitive concentration at 50% (IC50), Vesamicol receptor, Table 5; incubated three hours at 37°C; no unit printed in table (b19 gives nM for DRC140). The method, then: as §1
To measure affinity of vesamicol receptors, I-125 labeled 5-iodobenzo vesamicol (synthesized and labeled according to Jung et al., J. Med. Chem. 33, 2065-2068, 1990) was added to a brain homogenate prepared as follows. The vesamicol piperazine derivatives synthesized in the Examples were added at various concentrations. The mixture was then incubated for three hours at 37°C.
as §2
Male Wistar rats were anesthetized with ether and were decapitated. The brains were immediately extracted. The cerebella were removed from the brains. 0.32 M sucrose (containing 4 mM HEPES (pH 7.4)) in an amount of five times the wet amount (weight) of this sample was added. The sample was homogenized by a potter-type homogenizer for 12 strokes while cooling with ice. 0.32 M sucrose in the same amount as the homogenate (total: 10 times the wet amount of the original sample) was added. The suspension thus obtained was centrifuged for 5 minutes at 1,000 x g. The precipitate was removed. The supernatant liquid was centrifuged at 9,200 x g for 15 minutes to separate the precipitate from the supernatant liquid. P2 fractions were suspended in a Tris-HCl buffer (pH 7.4) for binding experiments and stored at -80°C until the start of the binding experiment.

Where [6] appears, read: inhibitive concentration at 50% (IC50), Receptor Vesamicol.
Setting [7] is: read-out: inhibitive concentration at 50% (IC50), Receptor Sigma-1.

Sequence of serotonin 5-HT2A receptors (P14842 whole entry): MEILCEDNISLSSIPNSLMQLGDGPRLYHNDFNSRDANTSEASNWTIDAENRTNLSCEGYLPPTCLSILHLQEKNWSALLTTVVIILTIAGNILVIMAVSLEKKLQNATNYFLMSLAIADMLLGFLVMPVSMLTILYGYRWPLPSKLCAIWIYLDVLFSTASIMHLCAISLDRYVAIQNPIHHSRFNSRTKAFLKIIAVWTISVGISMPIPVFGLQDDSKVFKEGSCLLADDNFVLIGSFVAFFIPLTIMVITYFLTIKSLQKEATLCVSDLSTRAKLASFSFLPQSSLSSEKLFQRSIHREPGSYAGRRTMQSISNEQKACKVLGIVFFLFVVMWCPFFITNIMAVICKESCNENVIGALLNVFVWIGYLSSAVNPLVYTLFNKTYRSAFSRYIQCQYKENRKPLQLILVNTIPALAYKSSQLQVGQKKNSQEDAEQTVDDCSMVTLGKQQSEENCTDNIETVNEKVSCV
T2 sequence (Q60492 whole entry): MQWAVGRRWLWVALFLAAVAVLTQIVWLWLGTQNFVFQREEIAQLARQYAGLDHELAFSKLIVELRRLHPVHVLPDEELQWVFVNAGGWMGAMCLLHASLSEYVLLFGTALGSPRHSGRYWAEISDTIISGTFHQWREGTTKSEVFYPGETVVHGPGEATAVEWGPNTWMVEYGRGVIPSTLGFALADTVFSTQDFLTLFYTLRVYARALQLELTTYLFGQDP

“m-(iodobenzyl)trozamicol [(+)-MIBT, reference compound]”: the IC50 at adrenaline α1 receptors stood at 0.421 µM; on vesamicol receptors [1] (read-out: inhibitive concentration at 50% (IC50), Receptor Vesamicol, Table 9, high purity derivatives (HPLC purified), I-125 labeled DRC140, P2 fractions, 3 hours at 37°C, unit inferred) it was 0.89 nM; at sigma receptors (read-out: inhibitive concentration at 50% (IC50), Receptor Sigma-1, Table 9, high purity derivatives, unit inferred), 0.00427 µM; in test [2] (read-out: inhibitive concentration at 50% (IC50), Receptor 5-HT1A, Table 9, high purity derivatives, unit inferred) it was 16.6 µM.

Regarding `OC1CCCCC1N1CCC(c2ccccc2)CC1` (single isomer, unassigned; (-)) [(-)-Vesamicol, 2-(4-phenyl-piperidino)cyclohexanol, reference compound], the IC50 in test [3] was over 5 µM; at vesamicol receptors [1] (IC50 (nM) Average ± S.D), 58.2 ± 17.3 nM; at vesamicol receptors [1] (setting [6]), 45.4 nM; at sigma receptors, 0.0665 µM; on vesamicol receptors [4], 45.4 ± 3.59 nM; in test [2], over 5 µM.

In the case of `O=C(c1ccc(F)cc1)C1CCN(CCn2c(=O)[nH]c3ccccc3c2=O)CC1` [Ketanserin, reference compound], the IC50 on vesamicol receptors [1] (Table 7, P2 fractions, inhibition of radioactive-iodine-labeled DRC140 binding, Binding site names the inhibitor's own site, read-out: IC50 (nM) Average ± S.D) worked out at 1110 ± 187 nM; on vesamicol receptors [4] (Table 8, purified synaptic vesicle fractions, inhibition of radioactive-iodine-labeled DRC140 binding, read-out: IC50 (nM) Average ± S.D), 1200 ± 43 nM. Moreover, the “inhibitive action on P2 fractions” value on vesamicol receptors [1] (result in words) is reported as “weak inhibitive action”. For the same molecule, the “inhibitive action on purified synaptic vesicles” value on vesamicol receptors [4] is on record as “almost the same degree of weak inhibitive action”.

For `Cc1ccc(C)c(N2CCN([C@@H]3Cc4c(I)cccc4C[C@H]3O)CC2)c1` (single isomer, unassigned) [DRE350, (-)-trans-5-iodo-2-hydroxy-3-[4-[2,5-dimethylphenyl]piperazinyl]tetralin], the IC50 is over 20 µM in test [3] (read-out: Inhibitive concentration at 50% (IC50), Serotonin receptor 5-HT2A); 0.83 nM on vesamicol receptors [1] (setting [6]); 0.58 nM on vesamicol receptors [5]; 1.5 µM at sigma receptors (read-out: Inhibitive concentration at 50% (IC50), Sigma α-1 receptor); 5.55 µM at sigma receptors (setting [7]); 0.24 µM in test [2] (read-out: Inhibitive concentration at 50% (IC50), Serotonin receptor 5-HT1A).

As for `Cc1ccccc1NC(=N)Nc1ccccc1C` [DTG, reference compound], at vesamicol receptors [1], the “inhibitive action on P2 fractions” value is listed as “weak inhibitive action”. Besides, the IC50 on vesamicol receptors [1] (IC50 (nM) Average ± S.D) was 3820 ± 930 nM. On vesamicol receptors [4], the IC50 was found to be 4160 ± 251 nM and the “inhibitive action on purified synaptic vesicles” value was “almost the same degree of weak inhibitive action”.

Take `O[C@@H]1Cc2cccc(I)c2C[C@H]1N1CCC(c2ccccc2)CC1` [(-)-IBVM, 5-iodobenzovesamicol, reference compound]: the IC50 at adrenaline α1 receptors was 0.00261 µM; in test [3] (read-out: inhibitive concentration at 50% (IC50), Receptor 5-HT2A), over 5 µM; at vesamicol receptors [1] (read-out: inhibitive concentration at 50% (IC50), Receptor Vesamicol), 0.32 nM; on sigma receptors (setting [7]), 0.174 µM; in test [2] (read-out: inhibitive concentration at 50% (IC50), Receptor 5-HT1A), 0.119 µM.
